# US9775859B2, “Methods and compositions for preventing and treating a disease related to glycan dysregulation” (Sinai Health System, priority 2005, dated 2017)
# Entries after “also recorded” stand apart in the source; their conditions may differ.
# How the values were obtained:
# Jurkat T-cells [1] = assay: L-PHA-FITC staining of Jurkat T cells cultured 3 days with monosaccharides, metabolites, Vitamin D3 or glycosidase inhibitors, FACS; type: cell-based, human; conditions: for Mgat5 N-glycans / β1,6GlcNAc-branched N-glycans expression (L-PHA staining): Jurkat T-cells, 3 days culture with supplement
# Procedure: (§1) Mice used for L-PHA staining and quantitative RT-PCR were sex and age matched. […] 129/Sv mice were from an original Mgat5 gene targeted population (28). All other mice (SJL, NOD, Balb/c and B10.S) were obtained from Jackson Laboratories. […] Mouse and Jurkat cells were stained with L-PHA and LEA by first blocking with PBA (2% bovine serum albumin/0.01% azide/PBS) for 10 min at 4° C. and then incubated with 4 μg/ml of L-PHA-FITC (Vector Laboratories Inc.) or 20 μg/ml of LEA-FITC (Sigma) in PBA for 40 min at 4° C. and analyzed by a BD FACSCalihur (BD Pharmingen, San Diego, Calif.). The level of lectin binding was normalized by untreated control and calculated as a percentage (Sample intensity/control intensity-1) %.
# (§2) Mice used for L-PHA staining and quantitative RT-PCR were sex and age matched. […] 129/Sv mice were from the original Mgat5 gene targeted population (28). All other mice (SJL, NOD, Balb/c and B10.S) were obtained from Jackson Laboratories. Mouse cells were stained with anti-CD4 (RM4-5), anti-CD8 (53-6.7), anti-CD45R (RA3-6B2) from eBioscience, and L-PHA (4 μg/ml) and LEA (20 μg/ml) from Sigma. […] Jurkat T-cells were cultured in either glutamine free RPMI 1640, 10% FBS, 10 mM/20 mM glucose or glucose/glutamine free DMEM base media supplemented with 10% FBS, 1.5 mM glucose. The indicated monosaccharides and/or metabolites were added daily except glucose which was added only at time zero.
# CD3+ T cells = assay: Trypan blue exclusion of MBP-stimulated cultures used for adoptive transfer; type: cell-based; conditions: 96 hours incubation, 40 mM added daily
# Procedure: (§3) Adoptive transfer EAE was induced by s.c. immunization of wild type PL/J mice housed in the UCI vivarium with 100 μg of bovine MBP (Sigma) emulsified in Complete Freund's Adjuvant containing 4 mg/ml heat-inactivated Mycobacterium tuberculosis (H37 RA; Difco, Detroit, Mich.) distributed over three spots on the hind flank. Splenocytes were harvested after 11 days and stimulated in vitro with 50 μg/ml MBP in the presence or absence of 40 mM N-Acetyl-D-glucosamine (Sigma) added daily. After 96 hours incubation, CD3^+ T cells were purified by negative selection (R&D Systems) and 3.5×10^6T-cells were injected i.p. into naïve PL/J Mgat5^+/− recipient mice. Trypan blue exclusion determined <3% dead cells under both culture conditions. The mice were scored daily for clinical signs over the next 30 days with the observer blinded to treatment conditions.
# (§4) Adoptive transfer EAE was induced by s.c. immunization of wild type PL/J mice housed in the UCI vivarium with 100 μg of bovine MBP (Sigma) emulsified in Complete Freund's Adjuvant containing 4 mg/ml heat-inactivated Mycobacterium tuberculosis (H37 RA; Difco, Detroit, Mich.) distributed over three spots on the hind flank. […] Trypan blue exclusion determined […] dead cells under both culture conditions. Mice were scored daily for clinical signs of EAE over the next 30 days with the observer blinded to treatment conditions.
# [2] = system: splenocytes harvested from MBP immunized wild type PL/J mice; assay: Cytokine ELISA of supernatant from MBP re-stimulated splenocyte cultures; type: cell-based, mouse; conditions: MBP re-stimulation day 4, GlcNAc 40 mM
# Procedure: Supernatant from spleenocyte cultures used for adoptive transfer EAE at day 4 of stimulation with MBP in the presence or absence of GlcNAc (40 mM) were tested for INFγ levels. Microtiter plates were coated with 50 μl of anti-IFN-γ (1 μg/ml, clone AN-18; eBiosciences) overnight at 4° C. Supernatants were applied at 50 μl/well in duplicate and incubated for 2 hours at room temperature. Captured cytokines were detected using biotinylated anti-IFN-γ (1 μg/ml, clone R4-6A2; eBiosciences) and detected using Avidin Horse Radish Peroxidase (eBiosciences) at 1:500× dilution and o-Phenylenediamine dihydrochloride OPD tablets (Sigma) according to the manufacturer's protocols. […] Colorimetric change was measured at 450 nm on a microplate autoreader (Labsystems).
# Supernatant from splenocyte cultures used for adoptive transfer EAE at day 4 of stimulation with MBP in the presence or absence of GlcNAc (40 mM) were tested for IFN-γ and IL-6 levels. […] Captured cytokines were detected using biotinylated anti-IFN-γ (1 μg/ml, clone R4-6A2; eBiosciences) or anti-IL-6 (1 μg/ml, clone MP5-32C11; eBiosciences) and detected using Avidin Horse Radish Peroxidase (eBiosciences) at 1:500× dilution and o-Phenylenediamine dihydrochloride OPD tablets (Sigma) according to the manufacturer's protocols. […] Colorimetric change was measured at 450 nm on a microplate autoreader (Labsystems).
# [3] = system: splenocytes harvested from MBP immunized wild type PL/J mice; assay: L-PHA and LEA staining of splenocytes from MBP immunized PL/J mice re-stimulated with MBP; type: cell-based, mouse; conditions: MBP re-stimulation 4 days, GlcNAc 40 mM
# Procedure: as §3
# Mice used for L-PHA staining and quantitative RT-PCR were sex and age matched. […] 129/Sv mice were from an original Mgat5 gene targeted population (28). […] Mouse and Jurkat cells were stained with L-PHA and LEA by first blocking with PBA (2% bovine serum albumin/0.01% azide/PBS) for 10 min at 4° C. and then incubated with 4 μg/ml of L-PHA-FITC (Vector Laboratories Inc.) or 20 μg/ml of LEA-FITC (Sigma) in PBA for 40 min at 4° C. and analyzed by a BD FACSCalihur (BD Pharmingen, San Diego, Calif.). […]
# Jurkat T-cells [4] = assay: LEA-FITC staining (poly-N-acetyllactosamine) of Jurkat T cells, FACS; type: cell-based, human; conditions: 3 days culture with supplement
# Procedure: as §1, §2
# Jurkat T-cells [5] = assay: MS/MS mass spectroscopy of sugar-nucleotide expression in Jurkat cell lysates; type: cell-based, human
# Procedure: Jurkat cell pellets (20×10^6) were resuspended in a cold 300 μl methanol:water (1:1) solution containing maltose as internal standard, vortexed for 10 seconds, and then pipetted into tubes containing 600 μl of chloroform:methanol (C:M) (3:2). Samples were vortexed for 1 minute, and then centrifuged at 14,000 rpm for 5 minutes at 4° C. Supernatants were collected, and an equal volume of C:M (1:1) was added, followed by a second extraction. The pooled aqueous fraction containing the hydrophilic metabolites was dried with a speedvac and stored at −80° C. Prior to injection, the samples were dissolved in 100 μl methanol:water (1:1). […] The metabolites were identified by their transitions in MS/MS, and quantified using the Analyte Software (SCIEX), which measured the area under the curve for the fragment ions corresponding to each parent ion. Quantities for the given substrates are graphed as pmole/min/10^6 cells.
# JurkaT-cell pellets (20×10^6) were resuspended in cold 300 μl methanol:water (1:1) solution containing maltose as an internal standard, vortexed for 10 seconds, and then pipetted into tubes containing 600 μl of chloroform:methanol (C:M) (3:2). […] The metabolites were identified by their transitions in MS/MS, and quantified using the Analyte Software (SCIEX), which measured the area under the curve for the fragment ions corresponding to each parent ion. […]
# [6] = system: naïve PL/J Mgat5+/− recipient mice; assay: Adoptive transfer EAE; type: in vivo, mouse; conditions: T-cells re-stimulated in vitro with GlcNAc 40 mM, scored 30 days
# Procedure: as §3, §4
# T cell = conditions: cited from earlier work
# EAE = conditions: mouse, in vivo; cited from earlier work
# human PBMCs = assay: L-PHA staining of human PBMCs / MS patient T cells; type: cell-based
# Procedure: Mononuclear cells were isolated from the blood of subjects using Histopaque-1077™ gradients (Sigma, Saint Louis, Mo.) and cultured in RPMI 1640 medium supplemented with 4 mM glutamine, 1 mM sodium pyruvate, 1% non-essential amino acids, 1% RPMI vitamins, 100 units/ml penicillin, 100 μg/ml streptomycin, and 50 μM […]. T lymphocytes were left unstimulated or were activated for 48 hours with 20 ng/ml anti-CD3 antibody (Biomeda, Foster City, Calif.) or a combination of 20 myelin peptides at […] myelin basic protein (MBP). The myelin peptides were immunodominant peptides from human proteolipid protein (PLP 30-49, PLP 40-60, PLP 95-118, PLP 118-150, PLP-180-189, PLP 185-206), human myelin oligodendrocyte glycoprotein (MOG 38-60, MOG 63-87, MOG 76-100, MOG 89-113, MOG 112-132 and MOG 162-188) and cryptic peptides from MBP (MBP 41-69, MBP 61-79, MBP 121-139 and MBP 131-149) and PLP (PLP 73-104, PLP 145-186, PLP 218-248 and PLP 241-272) that are not normally derived from antigen processing but may be made by extracellular proteolytic activity (57). Whole MBP was isolated from frozen guinea pig spinal cords (Harlan Bioproducts, Indianapolis, Ind.). […] The stained cells were analyzed on a FACScan (BD Biosciences, San Jose, Calif.) using the CellQuest software. […] Background fluorescence was subtracted for each population. […]
# hepatoma cells = conditions: cited from earlier work
Structure (SMILES),"Mgat5 N-glycans / β1,6GlcNAc-branched N-glycans expression (L-PHA staining) (Jurkat T-cells [1])",dead cells (Trypan blue exclusion) (CD3+ T cells),dead cells (Trypan blue exclusion) (CD3+ T cells; listed as N-Acetyl-D-glucosamine),IL-6 secretion [2],INFγ production [2],"Mgat5 N-glycan / β1,6GlcNAc-branched N-glycans expression in re-stimulated splenocytes [3]",poly-N-acetyllactosamine expression in re-stimulated splenocytes [3],poly-N-acetyllactosamine expression (LEA staining) (Jurkat T-cells [4]),intracellular UDP-GlcNAc levels (Jurkat T-cells [5]),incidence of EAE following adoptive transfer of T-cells [6],severity of EAE following adoptive transfer of T-cells [6],INFγ production (T cell),T cell activation (T cell),TH1 differentiation (T cell),reversal of SW induced downregulation of Mgat5 glycans (Jurkat T-cells [1]; Jurkat T cells with swainsonine),"synergy with anti-CD3 in up-regulating Mgat5 glycan levels (Jurkat T-cells [1]; Jurkat T cells, anti-CD3)",EAE (EAE),reversal of attenuated Mgat5 N-glycan expression in MS patients (human PBMCs; MS patient T cells),Mgat5 modified glycan expression (human PBMCs; human PBMCs),Mgat5 mRNA expression (hepatoma cells)
"CC(=O)N[C@H]1C(O)O[C@H](CO)[C@@H](O)[C@@H]1O (stereo partly drawn) [GlcNAc, N-acetyl-D-glucosamine]",dose dependently increased,< 5%,< 3%,promoted,inhibited,doubled; also recorded: increased,doubled; also recorded: increased,dose dependently increased,dramatically raised,dramatically reduced,dramatically reduced,,,,,,,,,
"C=C1/C(=C\C=C2/CCC[C@]3(C)[C@@H]([C@H](C)CCCC(C)(C)O)CC[C@@H]23)C[C@@H](O)C[C@@H]1O [Vitamin D3, 1α,25-Dihydroxyvitamin D3]",enhanced; also recorded: increases,,,,,,,,,,,inhibits,inhibits,inhibits,rescued; also recorded: reversed,synergized,inhibits,reversed,enhanced,up-regulates
